Consider ten compounds from ChEMBL document CHEMBL1201862, “PubChem BioAssay data set” (2004).

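A five-concentration, 48-hour dose response in 96-well plates underlies each endpoint, interpolated linearly between surrounding concentrations. Abbreviation: GI50, concentration required for 50% inhibition of growth.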 Activity calls are given as the source filed them. No stated cut-off is given here; in the data, active = GI50 up to about 1.1 µM and inactive = higher.

Test systems include 786-0; HCT-116; HT-29; TK-10; M14; CAKI-1; IGROV-1; OVCAR-4; OVCAR-8; NCI-H460; HCC 2998; MDA-N; LOX IMVI; MDA-MB-231; KM12; HOP-92; SF-295; UACC-62; T47D; ACHN.
Test in all cases: DTP human tumour cell line panel, 48 h

Regarding `CC(=O)NC1C(OCc2ccccc2)OC(CO)C(O)C1OCC(=O)NC(C)C(=O)NC(CCC(=O)Nc1ccc2c(c1)CN1C(=O)c3ccccc3C1=N2)C(N)=O` (stereo not given), the GI50 in the test on 786-0, with HCT-116, in the test with HT-29, in the test with TK-10, with M14 and with CAKI-1 was > 100 µM (inactive) each time. The GI50 in the test on IGROV-1, in the test with OVCAR-4, in the test with OVCAR-8, in the test with NCI-H460, in the test on HCC 2998 and in the test with MDA-N was > 100 µM (inactive) each time. In addition, the GI50 in the test with LOX IMVI was > 100 µM (inactive); in the test with MDA-MB-231 it was > 100 µM (inactive); with KM12, > 100 µM (inactive); with HOP-92, 76.7 µM (inactive); in the test on SF-295 it was > 100 µM (inactive); in the test with UACC-62 it was > 100 µM (inactive). The GI50 is 42.8 µM (inactive) with T47D and > 100 µM (inactive) in the test with ACHN.
For the compound `COc1cc2c(SCCN(C)C)nc3ccccc3c2c2ccccc12`, the GI50 was 1.93 µM (inactive) in the test on 786-0; 1.67 µM (inactive) in the test on HCT-116; 2.64 µM (inactive) in the test with HT-29; 2.7 µM (inactive) with TK-10; 1.68 µM (inactive) with M14; 1.88 µM (inactive) in the test with CAKI-1. Further, the GI50 in the test on IGROV-1 is 1.3 µM (inactive); with OVCAR-4, 2.62 µM (inactive); with OVCAR-8, 2.14 µM (inactive); with NCI-H460, 1.68 µM (inactive); in the test with HCC 2998, 1.47 µM (inactive); in the test on MDA-N, 2.19 µM (inactive). Besides, the GI50 with LOX IMVI was 1.69 µM (inactive); with MDA-MB-231 it was 2.25 µM (inactive); in the test with KM12 it was 1.56 µM (inactive); in the test on HOP-92 it was 1.73 µM (inactive); in the test with SF-295, 1.77 µM (inactive); in the test on UACC-62, 1.63 µM (inactive). The GI50 was 2.7 µM (inactive) in the test with T47D and 1.78 µM (inactive) with ACHN.
For the compound `C[N+](C)(C)CC1CCCC1=O` (stereo not given), the GI50 in the test on 786-0 is 2.34 µM (inactive); with HCT-116, 1.25 µM (inactive); in the test on HT-29, 1.23 µM (inactive); with TK-10, 2.62 µM (inactive); in the test on M14 it was 0.929 µM (active); in the test with CAKI-1, 2.48 µM (inactive). The GI50 in the test on IGROV-1 is 16 µM (inactive); with OVCAR-4 it was 0.867 µM (active); with OVCAR-8, 2.1 µM (inactive); with NCI-H460 it was 19.5 µM (inactive); in the test with HCC 2998, 16 µM (inactive); in the test with MDA-N it was 1.69 µM (inactive). For the same compound, the GI50 in the test on LOX IMVI was 0.832 µM (active); with MDA-MB-231, 1.39 µM (inactive); with KM12, 6.59 µM (inactive); with HOP-92 it was 1.07 µM (active); in the test with SF-295, 19.1 µM (inactive); in the test with UACC-62 it was 1.6 µM (inactive). In addition, the GI50 in the test on T47D is 0.192 µM (active); in the test with ACHN, 1.09 µM (active).
Turning to `O=C1OC2C(O)COC2(O)C1(O)C(C[N+](=O)[O-])c1ccc(Cl)cc1` (stereo not given), the GI50 in the test on 786-0 is 1.82 µM (inactive); in the test on HCT-116, 1.79 µM (inactive); with HT-29, 1.99 µM (inactive); in the test on TK-10, 12.5 µM (inactive); with M14 it was 2.58 µM (inactive); in the test with CAKI-1, 15.5 µM (inactive). Also, the GI50 in the test on IGROV-1 was 9.38 µM (inactive); in the test with OVCAR-4, 8.45 µM (inactive); with OVCAR-8, 10.1 µM (inactive); in the test on NCI-H460 it was 13.7 µM (inactive); in the test on HCC 2998, 6.78 µM (inactive); in the test with MDA-N it was 2.76 µM (inactive). For the same compound, the GI50 in the test with LOX IMVI was 2.69 µM (inactive); with MDA-MB-231, 30.2 µM (inactive); in the test on KM12, 7.36 µM (inactive); in the test on HOP-92, 28.7 µM (inactive); with SF-295 it was 12.1 µM (inactive); with UACC-62, 10 µM (inactive). For the same compound, the values for the GI50 in the test with T47D and in the test with ACHN were 13.8 µM (inactive) and 12.4 µM (inactive), respectively.
On to `C[C@@H]([C@H]1CC[C@@]2(C)[C@@H]3CC[C@@H]4C(=CC3=CC[C@]12C)CC[C@H](N(C)C)C4(C)C)N(C)C` [BUXAMINE A], for which the GI50 in the test on 786-0, with HCT-116, in the test with HT-29, in the test with TK-10, in the test with M14 and in the test on CAKI-1 was > 100 µM (inactive) each time. Also, the GI50 in the test with IGROV-1, in the test on OVCAR-4, with OVCAR-8, with NCI-H460, in the test with HCC 2998 and with MDA-N was > 100 µM (inactive) in each case. Also, the GI50 in the test on LOX IMVI, with MDA-MB-231, with KM12, with HOP-92, in the test with SF-295 and in the test with UACC-62 was > 100 µM (inactive) in each case. Moreover, the GI50 with T47D and in the test with ACHN was > 100 µM (inactive) each time.
Turning to `NCCN1C(=O)CN=C(c2ccc(Cl)cc2)c2cc(Cl)ccc21`, the GI50 was 15.9 µM (inactive) in the test with 786-0; 16.2 µM (inactive) in the test on HCT-116; 16.8 µM (inactive) with HT-29; 16.1 µM (inactive) with TK-10; 16.1 µM (inactive) with M14; 16.3 µM (inactive) with CAKI-1. Moreover, the GI50 in the test with IGROV-1 was 13.3 µM (inactive); in the test on OVCAR-4, 16.2 µM (inactive); in the test on OVCAR-8 it was 16.7 µM (inactive); with NCI-H460, 18 µM (inactive); with HCC 2998, 16.5 µM (inactive); in the test with MDA-N, 16.7 µM (inactive). In addition, the GI50 was 16.2 µM (inactive) with LOX IMVI; 14.3 µM (inactive) in the test on MDA-MB-231; 17.2 µM (inactive) in the test on KM12; 9.84 µM (inactive) in the test with HOP-92; 32.8 µM (inactive) in the test on SF-295; 17.9 µM (inactive) in the test with UACC-62. In addition, the GI50 in the test with T47D is 21.8 µM (inactive); with ACHN, 18.7 µM (inactive).
Take `CCN(CC)CCNc1nc(N)c(C#N)c(C#N)c1C#N`: the GI50 in the test on 786-0, with HCT-116, in the test on HT-29, in the test on TK-10, in the test on M14 and with CAKI-1 was > 10 µM (inactive) each time. Moreover, the GI50 in the test with IGROV-1, in the test with OVCAR-4, with OVCAR-8, with NCI-H460, in the test on HCC 2998 and with MDA-N was > 10 µM (inactive) in each case. In addition, the GI50 in the test with LOX IMVI, in the test on MDA-MB-231, with KM12, in the test on HOP-92, in the test on SF-295 and with UACC-62 was > 10 µM (inactive) throughout. The GI50 in the test with T47D and with ACHN was > 10 µM (inactive) throughout.
For `C[C@]12CC[C@@H]3c4ccc(OS(N)(=O)=O)cc4CC[C@H]3[C@@H]1CCC2=O` [EMATE], the GI50 with 786-0 is 53.3 µM (inactive); in the test on HCT-116, 30.2 µM (inactive); in the test with HT-29, 30.1 µM (inactive); in the test on TK-10, 59.6 µM (inactive); in the test with M14, 38.9 µM (inactive); with CAKI-1 it was > 100 µM (inactive). Also, the GI50 in the test with IGROV-1 was 28.7 µM (inactive); with OVCAR-4 it was 57.7 µM (inactive); in the test on OVCAR-8 it was 53 µM (inactive); in the test with NCI-H460 it was 31.6 µM (inactive); in the test with HCC 2998, 49.2 µM (inactive); in the test on MDA-N, 31.6 µM (inactive). The GI50 in the test with LOX IMVI was 75.9 µM (inactive); with MDA-MB-231, 94 µM (inactive); with KM12, 30.5 µM (inactive); with HOP-92, > 100 µM (inactive); with SF-295, 36.4 µM (inactive); in the test on UACC-62, 37.6 µM (inactive). The GI50 in the test on T47D was 29 µM (inactive); in the test with ACHN, 84.9 µM (inactive).
Regarding `Cc1ccc2c(c1)[nH]c(=S)n2C=C1C(=O)CC(C)(C)CC1=O`, the GI50 with 786-0, with HCT-116, in the test on HT-29, in the test on TK-10, in the test on M14 and in the test with CAKI-1 was > 100 µM (inactive) each time. In addition, the GI50 in the test on IGROV-1 is 15.8 µM (inactive); in the test on OVCAR-4, > 100 µM (inactive); in the test with OVCAR-8, > 100 µM (inactive); with NCI-H460, > 100 µM (inactive); with HCC 2998, > 100 µM (inactive); in the test on MDA-N, > 100 µM (inactive). Also, the GI50 in the test with LOX IMVI, in the test on MDA-MB-231, in the test with KM12, in the test with HOP-92, with SF-295 and with UACC-62 was > 100 µM (inactive) in each case. Besides, the GI50 in the test with T47D and in the test on ACHN was > 100 µM (inactive) each time.
Consider `O=C1/C(=C2/C(=O)N(c3ccccc3)c3ccccc32)Nc2ccccc21`, for which the GI50 in the test on 786-0 is 15 µM (inactive); in the test with HCT-116 it was 36.6 µM (inactive); with HT-29 it was 59 µM (inactive); with TK-10 it was 27 µM (inactive); in the test on M14, 38.1 µM (inactive); in the test with CAKI-1 it was 45.5 µM (inactive). For the same compound, the GI50 was 19.8 µM (inactive) in the test with IGROV-1; 25.5 µM (inactive) in the test on OVCAR-4; 47.8 µM (inactive) in the test with OVCAR-8; 46.2 µM (inactive) with NCI-H460; 32.3 µM (inactive) in the test with HCC 2998; > 100 µM (inactive) in the test with MDA-N. For the same compound, the GI50 was 78.3 µM (inactive) with LOX IMVI; 18.9 µM (inactive) in the test with MDA-MB-231; > 100 µM (inactive) with KM12; 25.9 µM (inactive) in the test on HOP-92; 48.4 µM (inactive) in the test on SF-295; > 100 µM (inactive) in the test on UACC-62. Besides, the GI50 with T47D is 0.571 µM (active); in the test with ACHN, 21.2 µM (inactive).

A word on the GI50: it is the concentration that inhibits growth by half.
